Data: patent US20230113037A1 (Bayer Aktiengesellschaft, priority 2019, published 2023)

Experiments:
AHR [1] = target: T1, AHR (Mus musculus, UniProt P30561); experiment: In vitro assay 3: antagonism in mouse cell line (AHR transactivation, firefly luciferase reporter, kynurenic acid prestimulated); assay type: cell-based; settings: mouse Hepa 1c1c7 cells, 200 μM kynurenic acid, 20 hours, read-out: AHR Antagonism Mouse IC50
T1 sequence (P30561 1-848 P471L/N533S/M589L): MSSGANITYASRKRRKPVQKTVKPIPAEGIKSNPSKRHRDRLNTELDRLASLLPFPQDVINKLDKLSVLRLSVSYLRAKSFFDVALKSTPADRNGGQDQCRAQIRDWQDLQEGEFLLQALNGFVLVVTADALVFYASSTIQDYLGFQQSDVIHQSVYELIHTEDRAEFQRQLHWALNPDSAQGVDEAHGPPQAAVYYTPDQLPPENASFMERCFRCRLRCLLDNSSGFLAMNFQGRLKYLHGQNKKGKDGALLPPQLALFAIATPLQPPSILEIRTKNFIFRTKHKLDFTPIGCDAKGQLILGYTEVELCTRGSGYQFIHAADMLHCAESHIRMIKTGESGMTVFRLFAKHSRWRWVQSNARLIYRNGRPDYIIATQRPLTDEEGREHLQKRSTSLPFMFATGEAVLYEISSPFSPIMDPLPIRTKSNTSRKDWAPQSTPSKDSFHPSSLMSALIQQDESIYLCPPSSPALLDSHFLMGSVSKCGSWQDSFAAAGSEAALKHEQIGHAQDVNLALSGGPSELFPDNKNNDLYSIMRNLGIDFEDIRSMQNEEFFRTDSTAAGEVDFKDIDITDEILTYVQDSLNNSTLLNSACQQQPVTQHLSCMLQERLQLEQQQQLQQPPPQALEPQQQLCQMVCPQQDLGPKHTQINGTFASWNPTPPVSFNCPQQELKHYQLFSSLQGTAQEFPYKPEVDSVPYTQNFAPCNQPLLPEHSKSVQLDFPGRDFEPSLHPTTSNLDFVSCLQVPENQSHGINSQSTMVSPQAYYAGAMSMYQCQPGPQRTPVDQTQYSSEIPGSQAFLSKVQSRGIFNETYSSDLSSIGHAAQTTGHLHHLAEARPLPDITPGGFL
In short: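 Luminescence from an AHR-dependent DRE-luciferase reporter, stably integrated in mouse cells, quantifies blockade of kynurenic acid-driven activation. Unstimulated cells mark maximal inhibition; normalization uses both control types, and multiply tested compounds carry mean or median values.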

AHR [2] = target: T2, AHR (Homo sapiens, UniProt P35869); experiment: In vitro assay 1: antagonism in human cell line (AHR transactivation, firefly luciferase reporter, kynurenic acid prestimulated); assay type: cell-based; settings: AHR Antagonism Human IC50 [M]
T2 construct: U87 MG glioblastoma cells (ATCC #HTB-14) endogenously expressing AHR; endogenous in cells; host or cells: U87 MG glioblastoma cells (ATCC #HTB-14)
T2 sequence (P35869 11-848): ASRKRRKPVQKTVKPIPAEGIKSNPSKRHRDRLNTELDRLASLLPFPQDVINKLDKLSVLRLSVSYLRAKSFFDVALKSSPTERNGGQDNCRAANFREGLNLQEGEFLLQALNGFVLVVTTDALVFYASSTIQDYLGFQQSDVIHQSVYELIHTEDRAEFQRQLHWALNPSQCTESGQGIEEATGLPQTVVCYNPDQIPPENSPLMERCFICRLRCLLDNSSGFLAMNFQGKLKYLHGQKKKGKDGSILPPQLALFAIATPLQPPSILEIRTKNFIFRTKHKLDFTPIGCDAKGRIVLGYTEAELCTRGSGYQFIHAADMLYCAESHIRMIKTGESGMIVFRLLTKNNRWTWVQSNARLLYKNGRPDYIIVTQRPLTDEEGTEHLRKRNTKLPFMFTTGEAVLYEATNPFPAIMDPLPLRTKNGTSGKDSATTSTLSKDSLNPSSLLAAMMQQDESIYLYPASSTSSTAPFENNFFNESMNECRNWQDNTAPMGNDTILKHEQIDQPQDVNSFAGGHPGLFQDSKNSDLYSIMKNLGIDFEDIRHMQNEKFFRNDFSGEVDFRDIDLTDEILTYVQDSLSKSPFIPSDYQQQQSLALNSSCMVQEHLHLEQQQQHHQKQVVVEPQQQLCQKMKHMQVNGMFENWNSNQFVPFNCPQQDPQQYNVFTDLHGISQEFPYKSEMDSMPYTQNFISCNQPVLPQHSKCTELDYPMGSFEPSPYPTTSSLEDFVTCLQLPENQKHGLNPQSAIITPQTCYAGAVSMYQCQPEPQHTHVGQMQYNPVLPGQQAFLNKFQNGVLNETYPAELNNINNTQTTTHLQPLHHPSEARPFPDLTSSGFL
In short: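 Antagonism is measured against kynurenic acid prestimulation in U87 MG glioblastoma cells carrying stable DRE-luciferase and Renilla reporters. Positive inhibition control: 150 μM kynurenic acid with 5 μM staurosporine. Values are normalized to controls; repeats are averaged or given as medians.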

Row | SMILES | IC50 (AHR [1]) | IC50 (AHR [2])
1 | CS(=O)(=O)c1ccc(-c2nc3c4cccc(Br)c4nc(N[C@@H]4CNCCNC4=O)n3n2)cc1 [Example 715, (6R)-6-({7-bromo-2-[4-(methanesulfonyl)phenyl][1,2,4]triazolo[1,5-c]quinazolin-5-yl}amino)-1,4-diazepan-5-one] | 14.8 nM | 1.13e-08 M
2 | N#Cc1ccc(-c2nc3c4cccc(Br)c4nc(N[C@@H]4CNCCNC4=O)n3n2)cc1 [Example 717, 4-(7-bromo-5-{[(6R)-5-oxo-1,4-diazepan-6-yl]amino}[1,2,4]triazolo[1,5-c]quinazolin-2-yl)benzonitrile] | 0.95 nM | 7.05e-10 M
3 | N#Cc1ccc(-c2nc3c4ccccc4nc(N[C@@H]4CNCCNC4=O)n3n2)cc1 [Example 718, 4-(5-{[(6R)-5-oxo-1,4-diazepan-6-yl]amino}[1,2,4]triazolo[1,5-c]quinazolin-2-yl)benzonitrile] | 8.12 nM | 1.93e-08 M
4 | O=C1NCCNC[C@H]1Nc1nc2ccccc2c2nc(-c3cc(F)ccc3OC(F)(F)F)nn12 [Example 719, (6R)-6-({2-[5-fluoro-2-(trifluoromethoxy)phenyl][1,2,4]triazolo[1,5-c]quinazolin-5-yl}amino)-1,4-diazepan-5-one] | 239 nM | 9.56e-06 M
5 | O=C1NCCNC[C@H]1Nc1nc2ccccc2c2nc(-c3ccccc3OC(F)(F)F)nn12 [Example 720, (6R)-6-({2-[2-(trifluoromethoxy)phenyl][1,2,4]triazolo[1,5-c]quinazolin-5-yl}amino)-1,4-diazepan-5-one] | 63.8 nM | 1.45e-07 M
6 | COc1ccc(-c2nc3c4cccc(C#N)c4nc(N[C@@H]4CCCCNC4=O)n3n2)cc1 [Example 721, 2-(4-methoxyphenyl)-5-{[(3R)-2-oxoazepan-3-yl]amino}[1,2,4]triazolo[1,5-c]quinazoline-7-carbonitrile] | 10.6 nM | 2.47e-09 M
7 | COc1ccc(-c2nc3c4ccccc4nc(N[C@@H]4CCCCNC4=O)n3n2)cc1C(F)(F)F [Example 722, (3R)-3-({2-[4-methoxy-3-(trifluoromethyl)phenyl][1,2,4]triazolo[1,5-c]quinazolin-5-yl}amino)azepan-2-one] | 6.63 nM | 7.2e-09 M
8 | Cn1cc(-c2nc3c4cccc(C(F)(F)F)c4nc(N[C@@H]4COCCNC4=O)n3n2)cn1 [Example 732, (6R)-6-{[2-(1-methyl-1H-pyrazol-4-yl)-7-(trifluoromethyl)[1,2,4]triazolo[1,5-c]quinazolin-5-yl]amino}-1,4-oxazepan-5-one] | 6.14 nM | 1.32e-09 M
9 | CN1CC[C@@H](Nc2nc3c(C(F)(F)F)cccc3c3nc(-c4cnn(C)c4)nn23)C1=O [Example 733, (3R)-1-methyl-3-{[2-(1-methyl-1H-pyrazol-4-yl)-7-(trifluoromethyl)[1,2,4]triazolo[1,5-c]quinazolin-5-yl]amino}pyrrolidin-2-one] | 6640 nM | 2.58e-07 M
10 | Cc1c(-c2nc3c4cccc(C(F)(F)F)c4nc(N[C@@H]4CCCCNC4=O)n3n2)cnn1C [Example 734, (3R)-3-{[2-(1,5-dimethyl-1H-pyrazol-4-yl)-7-(trifluoromethyl)[1,2,4]triazolo[1,5-c]quinazolin-5-yl]amino}azepan-2-one] | 8.92 nM | 3.94e-09 M
11 | Cn1ccc(-c2nc3c4cccc(C(F)(F)F)c4nc(N[C@@H]4CCCCNC4=O)n3n2)n1 [Example 735, (3R)-3-{[2-(1-methyl-1H-pyrazol-3-yl)-7-(trifluoromethyl)[1,2,4]triazolo[1,5-c]quinazolin-5-yl]amino}azepan-2-one] | 9.2 nM | 7.1e-09 M
12 | O=C1NCCCC[C@H]1Nc1nc2c(C(F)(F)F)cccc2c2nc(-c3cnn(C(F)F)c3)nn12 [Example 736, (3R)-3-({2-[1-(difluoromethyl)-1H-pyrazol-4-yl]-7-(trifluoromethyl)[1,2,4]triazolo[1,5-c]quinazolin-5-yl}amino)azepan-2-one] | 0.669 nM | 7.84e-10 M
13 | O=C1NCCCC[C@H]1Nc1nc2c(C(F)(F)F)cccc2c2nc(-c3cc[nH]n3)nn12 [Example 737, (3R)-3-{[2-(1H-pyrazol-3-yl)-7-(trifluoromethyl)[1,2,4]triazolo[1,5-c]quinazolin-5-yl]amino}azepan-2-one] | 15.1 nM | 7.64e-09 M
14 | CCn1nc(C)c(-c2nc3c4cccc(C(F)(F)F)c4nc(N[C@@H]4CCCCNC4=O)n3n2)c1C [Example 738, (3R)-3-{[2-(1-ethyl-3,5-dimethyl-1H-pyrazol-4-yl)-7-(trifluoromethyl)[1,2,4]triazolo[1,5-c]quinazolin-5-yl]amino}azepan-2-one] | 1.03 nM | 3.4e-09 M
15 | CN1CCCC[C@@H](Nc2nc3c(C(F)(F)F)cccc3c3nc(-c4cnn(C)c4)nn23)C1=O [Example 739, (3R)-1-methyl-3-{[2-(1-methyl-1H-pyrazol-4-yl)-7-(trifluoromethyl)[1,2,4]triazolo[1,5-c]quinazolin-5-yl]amino}azepan-2-one] | 1.4 nM | 6.64e-10 M
16 | Cc1cc(-c2nc3c4cccc(C(F)(F)F)c4nc(N[C@@H]4CCCCNC4=O)n3n2)n(C)n1 [Example 740, (3R)-3-{[2-(1,3-dimethyl-1H-pyrazol-5-yl)-7-(trifluoromethyl)[1,2,4]triazolo[1,5-c]quinazolin-5-yl]amino}azepan-2-one] | 1.65 nM | 1.22e-09 M
17 | O=C1NCCCC[C@H]1Nc1nc2c(C(F)(F)F)cccc2c2nc(-c3cnn(C4CCC4)c3)nn12 [Example 741, (3R)-3-{[2-(1-cyclobutyl-1H-pyrazol-4-yl)-7-(trifluoromethyl)[1,2,4]triazolo[1,5-c]quinazolin-5-yl]amino}azepan-2-one] | 1.41 nM | 7.02e-10 M
18 | O=C1NCCCC[C@H]1Nc1nc2c(C(F)(F)F)cccc2c2nc(-c3cnn(CC4CC4)c3)nn12 [Example 742, (3R)-3-({2-[1-(cyclopropylmethyl)-1H-pyrazol-4-yl]-7-(trifluoromethyl)[1,2,4]triazolo[1,5-c]quinazolin-5-yl}amino)azepan-2-one] | 1.9 nM | 8.31e-10 M
19 | O=C1NCCCC[C@H]1Nc1nc2c(C(F)(F)F)cccc2c2nc(-c3cn(C4CC4)nc3C(F)F)nn12 [Example 743, (3R)-3-({2-[1-cyclopropyl-3-(difluoromethyl)-1H-pyrazol-4-yl]-7-(trifluoromethyl)[1,2,4]triazolo[1,5-c]quinazolin-5-yl}amino)azepan-2-one] | 1.73 nM | 1.26e-09 M
20 | O=C1NCCCC[C@H]1Nc1nc2c(C(F)(F)F)cccc2c2nc(-c3cnn(CC4CCC4)c3)nn12 [Example 744, (3R)-3-({2-[1-(cyclobutylmethyl)-1H-pyrazol-4-yl]-7-(trifluoromethyl)[1,2,4]triazolo[1,5-c]quinazolin-5-yl}amino)azepan-2-one] | 11.6 nM | 1.69e-09 M
